Here are results for 12 compounds from patent US12036190B2, “Methods and compositions for the treatment of cytoplasmic glycogen storage disorders” (Duke University, priority 2015, dated 2024).

“Also recorded” adds a separate entry of the source. Like-named read-outs stand apart in the source and are kept apart here. A value given as a limit tells only on which side of the number the result lay.

The subject of data set [1] is autophagy. Conditions: Table 4; drugs known to enhance autophagy; cited from earlier work.
Data set [2] has as its system G6pc knockdown AML-12 cells. In words: LC3 Western blot of drug-treated G6pc knockdown AML-12 cells. The data set is classed as cell-based, mouse. Conditions: 24 hours; conditions with optimal effects in the Oil Red O screen. On the procedure: FIG. 27 illustrates LC3 Western blot of drug-treated G6pc knockdown AML-12 cells. Western blotting was performed on AML-12 cells incubated for 24 hours with the described drug conditions. LC3 was quantified and normalized against each condition's β-actin protein quantification.
In addition to Oil Red O staining, cells were analyzed via Western blots for restored LC3 expression for each drug, under the conditions that had optimal effects in the Oil Red O screen (FIG. 27). Since the Western antibody previously used successfully for rapamycin treatment LC3 blots had been discontinued by the manufacturer, we tested two alternative antibodies and chose the one from Cell Signaling Technologies because it gave the strongest signal-to-noise ratio under our experimental conditions.
Western blotting was performed on AML-12 cells incubated for 24 hours with the described drug conditions. LC3 was quantified and normalized against each condition's β-actin protein quantification.
For orientation: A western blot detects proteins with antibodies after separation by electrophoresis.

The subject of data set [3] is G6pc siRNA knockdown AML-12 cells. Conditions: for Lipid Reduction Scoring, High dose / Lipid Reduction Scoring, Low dose / Lipid Reduction Scoring, Medium dose: Oil Red O, duplicate; for Lipid Reduction Scoring, Low dose: low concentration of Table 6; for Lipid Reduction Scoring, Medium dose: medium concentration of Table 6. An excerpt:
In brief, a wide array of drugs was selected, including those that modulate autophagy via the […] pathway, those that do so through AMPK modulation to act through mTORC1, and those using yet-undetermined pathways. Analysis of additional literature led to the selection of three concentrations of each compound to be tested in cell culture using the G6pc siRNA knockdown AML-12 mouse hepatocyte cell line model of GSD Ia as an initial screen for the drugs.
Drug concentrations were chosen based on similarity to published concentrations in either cell culture models resulting in target effects or autophagy, or in vivo extracellular fluid concentrations following animal treatments. The latter case is noted with the fluid type. Concentrations used in our in vitro AML-12 cell culture treatments are listed as the low, medium, and high concentrations that were screened.
The first test using AML-12 cells was the Oil Red 0 stain to examine the presence of lipid vacuoles in cells given the treatments.
G6pc siRNA knockdown AML-12 cells were given three different doses of each drug treatment. After 72 hours of growth, the media was changed to ketogenic media and appropriate quantities of each drug were added. This was performed in duplicate. Oil Red 0 staining was then performed and bright field images acquired at 10× magnification.
Drug treatments at three doses each were performed on G6pc siRNA knockdown AML-12 cells. Following oil red 0 staining the whole plates were evaluated visually for reductions in lipid accumulation. Treatments were performed in duplicate. —/0/+/++/+++ indicates the degree of improvement, or lipid reduction, caused by the treatment, with + indicating positive benefits.

For data set [4], the system named is murine model for hepatosteatosis. The data set is classed as in vivo, mouse.
The subject of data set [5] is mouse primary hepatocytes. Briefly: LC3-II in mouse primary hepatocytes after clenbuterol. The data set is classed as cell-based. Conditions: 24 hours. An excerpt: (§1) Asterisk indicates p<0.05.
(§2) Thus, clenbuterol, a long-acting β-agonist with proven safety for long-term treatment of mice, represents a leading candidate among drugs to be considered for the manipulation of autophagy in GSD Ia (Table 2).

The subject of data set [6] is HepG2 cells. Briefly: LC3-II in HepG2 cells after clenbuterol. The data set is classed as cell-based.
From the text: as §1, §2

The test system of data set [7] is GAA knockout (KO) mice. Briefly: β2 agonist with ERT (rhGAA) in GAA-KO mice with Pompe disease. Conditions: for CI-MPR (M6PR) expression: muscle; for glycogen content in skeletal muscle: β2 agonist added to ERT, versus ERT alone.
Data set [8] deals with patients with late-onset Pompe disease. Conditions: adjunctive to ERT; cited from earlier work.
The subject of data set [9] is G6pc−/− knockout mice. In words: Bezafibrate treatment of G6pc−/− mice. The data set is classed as in vivo.
Experimental: G6pc−/− knockout mice were administered intraperitoneal injections of bezafibrate 25 mg/kg/day suspended in 10% DMSO/90% PBS IP for 3 days.

For the compound `CC#C[C@]1(O)CC[C@H]2[C@@H]3CCC4=CC(=O)CCC4=C3[C@@H](c3ccc(N(C)C)cc3)C[C@@]21C` [Mifepristone], the Effect result in data set [1] was “Activated autophagy, inhibited FXR”. Also, the “LC3 normalized against β-actin (Western blot)” value in [2] is listed as “increase in LC3 autophagic marker”. Besides, in data set [3], the “cell survival, High dose” value is “Great survival”; the “Lipid Reduction Scoring, Low dose” value is listed as “+”; the “Lipid Reduction Scoring, Medium dose” value is recorded as “+ (Spotty ++)”. In data set [3] (high concentration of Table 6), the “Lipid Reduction Scoring, High dose” value was “++”.
Consider `CN(C)C(=N)N=C(N)N` [Metformin], for which the Effect entry in [1] is listed as “Activated autophagy, activated AMPK in vitro”. Also, the “Lipid Reduction Scoring, High dose” value in [3] (high concentration of Table 6) is recorded as 0. For the same compound, the “Lipid Reduction Scoring, Low dose” value in data set [3] is listed as “+”.
In the case of `CN(C)c1ccc2nc3ccc(=[N+](C)C)cc-3sc2c1` [Methylene Blue, Methylene blue], the Effect entry in [1] was “Activated autophagy, inhibited hepatosteatosis”. The “Lipid Reduction Scoring, High dose” value in data set [3] (high concentration of Table 6) is reported as “− − −”. Moreover, in [3], the “Lipid Reduction Scoring, Low dose” value was “+” and the “Lipid Reduction Scoring, Medium dose” value is listed as “− −”.
Consider `CC(C)(C)NCC(O)c1cc(Cl)c(N)c(Cl)c1` (centres unmarked) [Clenbuterol, clenbuterol], for which the autophagy result in data set [4] (murine model for hepatosteatosis) is listed as “induce autophagy”. For the same compound, in data set [4] (preclinical experiments), the hepatosteatosis entry was “reduced hepatosteatosis”. The LC3-II entry in data set [5] and in data set [6] (24 hours after addition) was “increases LC3-II” throughout. In addition, the “lowest concentration at which LC3-II is increased” value in data set [6] (24 hours) is given as 300 nM. Moreover, in [7] (GAA-KO mice), the muscle hypertrophy result was “induce muscle hypertrophy”. Further, the “CI-MPR (M6PR) expression” value was “enhance CI-MPR expression” in data set [7] (GAA-KO mice) and “increase the expression of CI-MPR; also recorded: increased CI-MPR expression; also recorded: enhancing M6PR expression” in data set [7] (GAA-KO mice, listed as clenbuterol). The “uptake of rhGAA” value in data set [7] (preclinical experiments) is given as “increased the uptake of rhGAA”. Moreover, the “glycogen content in skeletal muscle” value in [7] is recorded as “lower glycogen content; also recorded: decreased glycogen storage”.
`COc1ccc(CCN(C)CCCC(C#N)(c2ccc(OC)c(OC)c2)C(C)C)cc1OC` (centres unmarked) [Verapamil]: in data set [1], the Effect entry was “Induced autophagy, reduced cytosolic calcium”. In data set [3] (high concentration of Table 6), the “cell survival, High dose” value was “Very high death” and the “Lipid Reduction Scoring, High dose” value is “− −”. In addition, in data set [3], the “Lipid Reduction Scoring, Medium dose” value is “+”.
For the compound `CC(C)(C)NCC(O)c1ccc(O)c(CO)c1` (centres unmarked) [Albuterol, albuterol], the “glycogen content in skeletal muscle” value in [7] is recorded as “lower glycogen content”. The “6 minute walk test performance” value in data set [8] is reported as “improve the 6 minute walk test performance”.
As for `Cc1c(C)c2c(c(C)c1O)CC[C@@](C)(CCC[C@H](C)CCC[C@H](C)CCCC(C)C)O2` [α-Tocopherol], in data set [3], the “Lipid Reduction Scoring, Low dose” value is on record as 0 (Spotty +) and the “Lipid Reduction Scoring, Medium dose” value is “− (Spotty ++)”.
With `CC(C)(Oc1ccc(CCNC(=O)c2ccc(Cl)cc2)cc1)C(=O)O` [Bezafibrate, bezafibrate], in [3] (high concentration of Table 6), the “Lipid Reduction Scoring, High dose” value is recorded as “++”. For the same compound, in [3], the “Lipid Reduction Scoring, Medium dose” value was “+”. The “kidney weight as a percentage of total body weight” value in data set [9] (bezafibrate 25 mg/kg/day IP, p<0.046) is reported as “very small but quantitatively significant increase”. For the same compound, the blood glucose level in data set [9] (bezafibrate-treated affected mice, below threshold of detection) is < 20 mg/dL.
On to Thyroid hormone, for which, in data set [1], the Effect entry is “Increased autophagy, reduced steatosis”.
`Oc1ccc(C=Cc2cc(O)cc(O)c2)cc1` [Resveratrol]: the Effect result in [1] was “Enhanced FAO , reduced”. The “Lipid Reduction Scoring, High dose” value in [3] (high concentration of Table 6) is listed as “− − −”. In addition, in data set [3], the “Lipid Reduction Scoring, Low dose” value is on record as “+” and the “Lipid Reduction Scoring, Medium dose” value was 0 (Spotty ++).
As for `O=C(O)CCCCC1CCSS1` (stereo not drawn) [α-Lipoic acid, α-lipoic acid], the Effect entry in data set [1] is “Activated autophagy, reduced intercellular”. Moreover, the “Lipid Reduction Scoring, High dose” value in data set [3] (high concentration of Table 6) was determined as 0. Moreover, in data set [3], the “Lipid Reduction Scoring, Low dose” value is on record as “+”.
In the case of `OC[C@H]1O[C@H](O[C@H]2O[C@H](CO)[C@@H](O)[C@H](O)[C@H]2O)[C@H](O)[C@@H](O)[C@@H]1O` [Trehalose], in [1], the Effect result is reported as “Stimulated autophagy”. In addition, in [3], the “cell survival, High dose” value is reported as “High death”; the “Lipid Reduction Scoring, Low dose” value was “+”; the “Lipid Reduction Scoring, Medium dose” value is recorded as “− −”.
